Our source for the NO liberated experimentally values is patent publication US20110250134A1, “SUSTAINED RELEASE NITRIC OXIDE FROM LONG LIVED CIRCULATING NANOPARTICLES” (priority 2010, published 2011).

The nature of this data set: Total NO released (NO agents decomposition). It counts as physicochemical. As to the method:
Total NO released (NO agents decomposition). Gaseous NO levels were measured using a chemiluminescent NO analyzer (Sievers NO analyzer, Model 280i, Boulder, Colo.). […] Solutions were continuously bubbled with pure nitrogen (0.2 L/min). The gas phase was collected into the NO analyzer for a minute every 10 min., and the excess flow was evacuated through an underwater seal (1 cm H2O).

SMILES strings stand for the structures.

On to `NCCN(CCN)/[N+]([O-])=N/O` [DETA NONOate, Diethylenetriamine NONOate], for which the NO liberated experimentally is 10.7 μmols of NO/mg.
With `NCCCN(CCCN)/[N+]([O-])=N/O` [DPTA NONOate, Dipropylenetriamine NONOate], the NO liberated experimentally worked out at 9.4 µmol/mg.
